Source: patent US10005817B2, “Peptide pharmaceuticals” (EUMEDERIS PHARMACEUTICALS, INC., priority 2012, dated 2018)
Entries after “also recorded” stand apart in the source; their conditions may differ. Where two headings read alike, the source gives them in different places. Non-standard residues stand in square brackets, D forms with d. Residues, ends and D or L forms follow the SMILES beside them. *: point of attachment. GlcA(β-D,1-O-dodecyl) = CCCCCCCCCCCCO[C@@H]1O[C@H](C(=O)*)[C@@H](O)[C@H](O)[C@H]1O; GlcA(β1-O-octyl) = CCCCCCCCO[C@@H]1O[C@H](C(=O)*)[C@@H](O)[C@H](O)[C@H]1O; Phe(2,4,6-Me3) = Cc1cc(C)c(C[C@H](N)C(=O)O)c(C)c1; Dmt = Cc1cc(O)cc(C)c1C[C@H](N)C(=O)O; hArg = N=C(N)NCCCC[C@H](N)C(=O)O; Nle = CCCC[C@H](N)C(=O)O; Ac5c = NC1(C(=O)O)CCCC1; Aib = CC(C)(N)C(=O)O

Legend:
[1] = test system: blood PO4 levels in rats; experiment: blood phosphate levels in rats after single s.c. injection; format: in vivo, rat
Text: Following the method of Frolik, C.

[2] = target: T1, PTH receptor (PTHR1) (Homo sapiens, UniProt Q03431); experiment: PTH1 cellular assay, cAMP, agonist mode (SaOS2 cells, Cerep); format: cell-based
T1 construct: Cerep SA
T1 sequence (Q03431 27-593): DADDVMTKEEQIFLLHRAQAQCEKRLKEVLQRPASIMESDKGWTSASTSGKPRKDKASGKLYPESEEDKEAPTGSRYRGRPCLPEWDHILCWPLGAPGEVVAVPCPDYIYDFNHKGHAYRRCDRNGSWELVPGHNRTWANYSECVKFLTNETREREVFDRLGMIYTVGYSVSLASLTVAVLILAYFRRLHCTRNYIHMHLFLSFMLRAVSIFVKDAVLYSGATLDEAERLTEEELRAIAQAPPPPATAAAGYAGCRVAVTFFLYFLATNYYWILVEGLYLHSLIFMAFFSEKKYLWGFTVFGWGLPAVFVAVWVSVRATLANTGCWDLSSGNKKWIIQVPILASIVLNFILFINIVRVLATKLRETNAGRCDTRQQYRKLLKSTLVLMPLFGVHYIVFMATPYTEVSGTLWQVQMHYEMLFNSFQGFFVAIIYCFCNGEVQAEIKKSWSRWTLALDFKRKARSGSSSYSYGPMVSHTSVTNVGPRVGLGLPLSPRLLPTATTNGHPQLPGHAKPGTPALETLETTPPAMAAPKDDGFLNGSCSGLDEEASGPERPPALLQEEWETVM
Procedure: Compounds were weighed precisely in an amount of approximately 1 mg and assayed in standard cellular assays (cerep SA). The readout is the amount of cAMP generated in the cells treated with the test compounds, in either agonist or antagonist mode.
Compounds were dissolved in water and diluted in assay buffer containing 1% bovine serum albumin.

[3] = test system: blood Ca levels in rats; conditions: sc, 320 micrograms per kg (G4), at 5 hrs
Procedure: Each animal in a group was treated with a single sc injection of either vehicle or test agent.
Blood samples were collected via retro-orbital vein at 0.5, 1, 2, 4, and 5 hrs. post-injection and blood samples were stored on ice prior to centrifugation and testing for blood PO4 and Ca levels.

[4] = target: T2, mu opioid receptor (Homo sapiens, UniProt P35372); experiment: mu opioid receptor cellular assay (MOP), agonist mode, cAMP readout (Cerep); format: cell-based
T2 construct: Cerep
T2 sequence (P35372 whole entry): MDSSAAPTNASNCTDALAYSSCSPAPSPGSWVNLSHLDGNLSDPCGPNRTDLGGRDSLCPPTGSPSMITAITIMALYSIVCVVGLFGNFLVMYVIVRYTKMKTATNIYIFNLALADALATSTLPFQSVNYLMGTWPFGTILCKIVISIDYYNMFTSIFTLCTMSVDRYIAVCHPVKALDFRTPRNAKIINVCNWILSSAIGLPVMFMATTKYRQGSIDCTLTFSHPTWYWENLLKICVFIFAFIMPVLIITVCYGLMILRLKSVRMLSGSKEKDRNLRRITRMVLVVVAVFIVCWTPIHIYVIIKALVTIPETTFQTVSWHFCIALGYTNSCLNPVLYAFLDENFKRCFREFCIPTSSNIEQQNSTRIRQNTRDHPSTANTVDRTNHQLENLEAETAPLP
Procedure: (§1) Compounds were weighed precisely in an amount of approximately 2 mg and assayed in standard cellular assays by the contract research organization Cerep, Inc. (Pullman, Wash.) as executed at their subsidiary, Cerep SA (Le Bois l'Eveque, France). The readout is the amount of cAMP generated in the cells treated with the test compounds, in either agonist or antagonist mode. The assays used were the mu opioid receptor cellular assay (MOP in agonist and antagonist mode), the delta2 opioid receptor cellular assay (DOP in agonist and antagonist mode) and the kappa opioid receptor cellular assay (KOP in agonist and antagonist mode). The assays used are described in Wang, J. B., et al. (1994) FEBS Lett 338: 217-222, Law, P. Y. and Loh, H. H. (1993) Mol Pharmacol 43: 684-693, and Avidor-Reiss, T., et al. (1995) FEBS Lett 361: 70-74. The stimulant for the cells in the DOR antagonist assay was 3×10E-8M DPDPE, a well-accepted DOR literature standard.

[5] = target: T2, mu opioid receptor; experiment: mu opioid receptor cellular assay (MOP), antagonist mode, cAMP readout (Cerep); format: cell-based
Procedure: as §1

[6] = plasma protease stability, incubation in human plasma at 37 degC, LC-MS; format: in vitro ADME; conditions: over 8 hrs
[7] = test system: db/db mice; experiment: db/db mice, blood glucose after s.c. dosing; format: in vivo, mouse; conditions: db/db mice, s.c., 250 nmole/kg
Procedure: The 60 female db/db B6BKS (D) Leprdb/J (strain 000697) mice for this study were approximately 8 to 9 weeks old at arrival (Jackson Laboratory, Bar Harbor, Me.). […] One group of 8 female mice served as the vehicle control and received the vehicle, 0.2% BSA in saline, pH 7.4. One additional group of 8 female mice received the positive control article, liraglutide, at a dose level of 50 nmoles/kg. The test articles, vehicle, and positive control article were administered on Day 1, at approximately 0, 7, and 24 hours during the study via subcutaneous injection at a dose volume of 6 mL/kg.
Clinical observations were conducted at receipt, prior to randomization, and daily from Days 1 to 5. Body weights were measured and recorded at receipt, prior to randomization, and daily from Days 1 to 5. Food consumption was measured and recorded daily from Days 1 to 5. Blood samples for glucose analysis were collected pretest (Day −3) and at 0, 1, 2, 4, 8, 10, 24, 48, 72, and 96 hours following the first dose on Day 1. At study termination all animals were euthanized and the carcasses were discarded without further evaluation.

[8] = in the body; by s.c. injection; cited from earlier work
[9] = in vivo; cited from earlier work

**Q.** With `CCCCCCCCCCCCO[C@@H]1O[C@H](C(=O)NCCCC[C@H](NC(=O)C(C)(C)NC(=O)[C@H](CCC(N)=O)NC(=O)[C@@H](NC(=O)[C@H](Cc2c[nH]c3ccccc23)NC(=O)[C@H](CCCNC(=N)N)NC(=O)[C@H](C)NC(=O)[C@H](CCCCNC(=N)N)NC(=O)[C@H](CCC(N)=O)NC(=O)[C@H](Cc2c[nH]cn2)NC(=O)[C@H](CCCC)NC(=O)[C@H](CC(C)C)NC(=O)[C@H](CCC(N)=O)NC(=O)[C@@H](NC(=O)[C@H](CCC(=O)O)NC(=O)C(C)(C)NC(=O)[C@@H](NC(=O)C2(N)CCCC2)C(C)C)[C@@H](C)CC)[C@@H](C)CC)C(=O)NC(C)(C)C(N)=O)[C@@H](O)[C@H](O)[C@H]1O` [EU-232, Ac5c1-Val2-Aib3-Glu4-Ile5-Gln6-Leu7-Nle8-His9-Gln10-hArg11-Ala12-Arg13-Trp14-Ile15-Gln16-Aib17-Lys(N-epsilon-1′-dodecylbeta-D-glucuronyl)18-Aib19-NH2] (H-[Ac5c]V[Aib]EIQL[Nle]HQ[hArg]ARWIQ[Aib]K(GlcA(β-D,1-O-dodecyl))[Aib]-NH2) as the compound, how does the “time point of maximal statistically significant effect on blood phosphate” value ([1]; sc, last time point in the assay) read?
**A.** The value was 5 h.

**Q.** And the “blood PO4 levels” value ([1]; single sc injection, 80 mcg groups)?
**A.** The value was “transient but not statistically significant decrease”.

**Q.** What about the “maximal decrease in blood PO4 levels from time 0 hr. level” value ([1]; single sc injection, 5 hr. time point, dose not named in the sentence (320 group)) of the same compound?
**A.** The value was 25-35%.

**Q.** What about the Characterization [2] of the same compound?
**A.** The Characterization was “super-agonistic response; also recorded: super-agonistic activity; also recorded: agonist”.

**Q.** What about the EC50 [2] of the same compound?
**A.** The EC50 was 2.4 nM.

**Q.** And the Emax ([2]; SAOS-2, read-out: Maximal response (% PTHrP))?
**A.** The Emax was 145%.

**Q.** And the Emax ([2]; SAOS-2, read-out: maximal response)?
**A.** The Emax was 125%.

**Q.** And the blood calcium levels [3]?
**A.** The blood calcium levels was “no elevation”.

**Q.** With `CCCCCCCCO[C@@H]1O[C@H](C(=O)NCCCC[C@H](NC(=O)[C@H](Cc2c(C)cc(C)cc2C)NC(=O)[C@@H]2CCCN2C(=O)[C@@H](N)Cc2c(C)cc(O)cc2C)C(N)=O)[C@@H](O)[C@H](O)[C@H]1O` [EU-A102, 2′,6′-dimethyl-L-tyrosyl-prolyl-2′,4′,6′-trimethyl-L-phenylalanyl-Nε-(1′-octyl β-D-glucuronyl)-L-lysine amide] (H-[Dmt]P[Phe(2,4,6-Me3)]K(GlcA(β1-O-octyl))-NH2) as the compound, how does the “Characterization (MOP)” value [4] read?
**A.** The value was “partial agonist”.

**Q.** What about the EC50 [4] of the same compound?
**A.** Its EC50 is 100 nM.

**Q.** What about the IC50 [5] of the same compound?
**A.** The IC50 was 100 nM.

**Q.** Which “Characterization (MOP)” value [4] does the source give for `CCCCCCCCCCCCO[C@@H]1O[C@H](C(=O)NCCCC[C@H](NC(=O)[C@H](Cc2c(C)cc(C)cc2C)NC(=O)[C@@H]2CCCN2C(=O)[C@@H](N)Cc2c(C)cc(O)cc2C)C(N)=O)[C@@H](O)[C@H](O)[C@H]1O` [EU-A103, Dmt-Pro-Tmp-Lys(C12-glucuronyl)-NH2] (H-[Dmt]P[Phe(2,4,6-Me3)]K(GlcA(β-D,1-O-dodecyl))-NH2) here?
**A.** The value was “pure antagonist”.

**Q.** What about the IC50 [5] of the same compound?
**A.** Its IC50 is 86 nM.

**Q.** Which “amount of intact compound versus time in human plasma” value [6] does the source give for `CCCCCCCCCCCCO[C@@H]1O[C@H](C(=O)NCCCC[C@H](NC(=O)[C@@H](NC(=O)[C@H](Cc2ccccc2)NC(=O)[C@H](CCC(=O)O)NC(=O)[C@@H]2CCCCNC(=O)CC[C@H](NC(=O)[C@H](CC(=O)O)NC(=O)[C@H](CC(C)C)NC(=O)[C@H](Cc3ccc(O)cc3)NC(=O)[C@H](CCCCN)NC(=O)[C@H](CO)NC(=O)[C@H](Cc3ccc(O)cc3)NC(=O)[C@H](CC(=O)O)NC(=O)[C@H](CO)NC(=O)[C@@H](NC(=O)[C@H](Cc3ccccc3)NC(=O)[C@@H](NC(=O)CNC(=O)[C@H](CCC(N)=O)NC(=O)C(C)(C)NC(=O)[C@@H](N)Cc3c[nH]cn3)[C@@H](C)O)[C@@H](C)O)C(=O)N[C@@H](CCC(N)=O)C(=O)N[C@@H](C)C(=O)N[C@@H](C)C(=O)N2)[C@@H](C)CC)C(=O)N[C@@H](Cc2c[nH]c3ccccc23)C(=O)N[C@@H](CC(C)C)C(=O)N[C@@H](CC(C)C)C(=O)N[C@@H](CCC(N)=O)C(=O)N[C@H](C(N)=O)[C@@H](C)O)[C@@H](O)[C@H](O)[C@H]1O` [EU-A993] here?
**A.** The value was “essentially no change”.

**Q.** And the “Mean Blood Glucose” value ([7]; 0 hr)?
**A.** Its value is 503 mg/dL.

**Q.** What about the “Mean Blood Glucose” value ([7]; 10 hr) of the same compound?
**A.** The value was 305 mg/dL.

**Q.** And the “Mean Blood Glucose” value ([7]; 24 hr)?
**A.** The value was 324 mg/dL.

**Q.** And the “Mean Blood Glucose” value ([7]; 48 hr)?
**A.** Its value is 426 mg/dL.

**Q.** Which half-life [8] does the source give for `CC[C@H](C)[C@H](NC(=O)[C@H](CCC(=O)O)NC(=O)[C@H](CO)NC(=O)[C@@H](NC(=O)[C@@H](N)CO)C(C)C)C(=O)N[C@@H](CCC(N)=O)C(=O)N[C@@H](CC(C)C)C(=O)N[C@@H](CCSC)C(=O)N[C@@H](Cc1cnc[nH]1)C(=O)N[C@@H](CC(N)=O)C(=O)N[C@@H](CC(C)C)C(=O)NCC(=O)N[C@@H](CCCCN)C(=O)N[C@@H](Cc1cnc[nH]1)C(=O)N[C@@H](CC(C)C)C(=O)N[C@@H](CC(N)=O)C(=O)N[C@@H](CO)C(=O)N[C@@H](CCSC)C(=O)N[C@@H](CCC(=O)O)C(=O)N[C@@H](CCCN=C(N)N)C(=O)N[C@H](C(=O)N[C@@H](CCC(=O)O)C(=O)N[C@@H](Cc1c[nH]c2ccccc12)C(=O)N[C@@H](CC(C)C)C(=O)N[C@@H](CCCN=C(N)N)C(=O)N[C@@H](CCCCN)C(=O)N[C@@H](CCCCN)C(=O)N[C@@H](CC(C)C)C(=O)N[C@@H](CCC(N)=O)C(=O)N[C@@H](CC(=O)O)C(=O)N[C@H](C(=O)N[C@@H](Cc1cnc[nH]1)C(=O)N[C@@H](CC(N)=O)C(=O)N[C@@H](Cc1ccccc1)C(=O)O)C(C)C)C(C)C` [PTH] here?
**A.** Its half-life is 30 min.

**Q.** Which half life [9] does the source give for `CC[C@H](C)[C@H](NC(=O)[C@H](CCC(=O)O)NC(=O)[C@H](CO)NC(=O)[C@@H](NC(=O)[C@@H](N)CO)C(C)C)C(=O)N[C@@H](CCC(N)=O)C(=O)N[C@@H](CC(C)C)C(=O)N[C@@H](CCSC)C(=O)N[C@@H](Cc1cnc[nH]1)C(=O)N[C@@H](CC(N)=O)C(=O)N[C@@H](CC(C)C)C(=O)NCC(=O)N[C@@H](CCCCN)C(=O)N[C@@H](Cc1cnc[nH]1)C(=O)N[C@@H](CC(C)C)C(=O)N[C@@H](CC(N)=O)C(=O)N[C@@H](CO)C(=O)N[C@@H](CCSC)C(=O)N[C@@H](CCC(=O)O)C(=O)N[C@@H](CCCN=C(N)N)C(=O)N[C@H](C(=O)N[C@@H](CCC(=O)O)C(=O)N[C@@H](Cc1c[nH]c2ccccc12)C(=O)N[C@@H](CC(C)C)C(=O)N[C@@H](CCCN=C(N)N)C(=O)N[C@@H](CCCCN)C(=O)N[C@@H](CCCCN)C(=O)N[C@@H](CC(C)C)C(=O)N[C@@H](CCC(N)=O)C(=O)N[C@@H](CC(=O)O)C(=O)N[C@H](C(=O)N[C@@H](Cc1cnc[nH]1)C(=O)N[C@@H](CC(N)=O)C(=O)N[C@@H](Cc1ccccc1)C(=O)O)C(C)C)C(C)C` [Teriparatide] here?
**A.** Its half life is 19 min.
